Laboratory results published in patent US10159656B2, “Methods for use of epinephrine fine particles for treatment of conditions responsive to epinephrine” (NOVA SOUTHEASTERN UNIVERSITY, priority 2013, dated 2018).

Experiments:
[1] = one cycle at 30,000 Psi
Method: The processed EpiBit were tested for stability and removal of isopropyl alcohol using FT-IR spectrometer, spectrum 100 (PerkinElmer, Waltham, Mass.) scanned from 4000-650 cm^−1.

[2] = one cycle at 30,000 Psi; remark: listed apart in the source
Method: Also, the processed EpiBit were tested for purity, stability, and crystallinity changes using Differential Scanning calorimetry (DSC) 4000 (PerkinElmer, Waltham, Mass.) that was calibrated using an indium standard and heated from 30 to 300° C. at rate of 10° C./min and with a nitrogen purge of 20 mL/min.

[3] = after processing, one cycle at 30,000 Psi
[4] = Method: The average particles size (by volume) of EpiBit before processing was measured using laser diffraction technique using Mastersizer (Malvern Instruments Inc, Westborough, Mass.).
[5] = EpiBit before processing, by volume, n=6, text
[6] = EpiBit before processing, by volume, listed as EpiBit crystals before processing

Row | Compound | degradation after processing (FT-IR spectra before and after) [1] | degradation or crystallinity change after processing (DSC) [2] | particles size distribution by intensity ([3]; n=3) | particles size distribution by volume ([3]; n=3) | Z-potential ([3]; listed as EpiBit crystals after processing) | 10th percentile (Dv0.1) particle size [4, 5] | median (Dv0.5) particle size [4, 5] | D (4, 3) mean volume particle size [4, 6] | D(0.9) particle size [4, 6] | reduction of particles size of EpiBit crystals ([4]; after versus before processing)
1 | CNC[C@H](O)c1ccc(O)c(O)c1.O=C(O)C(O)C(O)C(=O)O [EpiBit After Processing, epinephrine bitartrate microcrystals] | no evidence of EpiBit degradation after processing | no evidence of EpiBit degradation or crystallinity change after processing | 2.4±0.4 μm | 2.5±0.4 μm | −4.5±1.4 mV | – | – | – | – | –
2 | CNC[C@H](O)c1ccc(O)c(O)c1.O=C(O)C(O)C(O)C(=O)O [EpiBit Before Processing, (−)-Epinephrine (+) bitartrate] | – | – | – | – | – | 39.8±3.0 nm | 113.6±9.1 nm | 131.8±10.5 μm | 254.8±20.1 μm | up to 55 folds
